The structures appear in SMILES notation. Inconclusive results and toxic doses are left out.

The experiment deals with CD2F1 mice, L1210 leukemia ip, survival T/C. Description: NCI In Vivo Anticancer Drug Screen. Data for tumor model L1210 Leukemia (intraperitoneal) in CD2F1 (CDF1) mice. Conditions: higher = longer survival. A digest of the protocol:
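Transplantable tumor in mice; compound-treated vs vehicle-treated groups. Read-out = treated/control ratio of the measured endpoint.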

[1] abbreviates: endpoint: mean survival time, dose: 100.0 mg/kg/injection, schedule: Q01DX009 (ip), vehicle: Klucel (hydroxypropylcellulose) (HPC).
[2] abbreviates: endpoint: mean survival time, dose: 200.0 mg/kg/injection, schedule: Q01DX009 (ip), vehicle: Klucel (hydroxypropylcellulose) (HPC).
Where [3] appears, read: endpoint: mean survival time, dose: 400.0 mg/kg/injection, schedule: Q01DX009 (ip), vehicle: Klucel (hydroxypropylcellulose) (HPC).
Where [4] appears, read: endpoint: mean survival time, dose: 100.0 mg/kg/injection, schedule: Q01DX009 (ip), vehicle: saline with Tween-80.
Where [5] appears, read: endpoint: mean survival time, dose: 200.0 mg/kg/injection, schedule: Q01DX009 (ip), vehicle: saline with Tween-80.
Where [6] appears, read: endpoint: mean survival time, dose: 400.0 mg/kg/injection, schedule: Q01DX009 (ip), vehicle: saline with Tween-80.
[7] abbreviates: endpoint: mean survival time, dose: 50.0 mg/kg/injection, schedule: Q01DX009 (ip), vehicle: saline with Tween-80.
The mark [8] stands for this setting: endpoint: mean survival time, dose: 100.0 mg/kg/injection, schedule: Q04DX003 (ip), vehicle: saline with Tween-80.
[9] abbreviates: endpoint: mean survival time, dose: 200.0 mg/kg/injection, schedule: Q04DX003 (ip), vehicle: saline with Tween-80.

Take `CO[C@@]12[C@H](COC(N)=O)C3=C(C(=O)C(C)=C(N)C3=O)N1C[C@H]1[C@@H]2N1C(=O)[C@@H]1N2C(=O)[C@@H](NC(=O)Cc3ccccc3)[C@H]2SC1(C)C`: the T/C is 109 % of control (endpoint: mean survival time, dose: 25.0 mg/kg/injection, schedule: Q01DX001 (ip), vehicle: carboxymethylcellulose (CMC)); 120 % of control (endpoint: mean survival time, dose: 25.0 mg/kg/injection, schedule: Q01DX007 (ip), vehicle: carboxymethylcellulose (CMC)); 100 % of control (endpoint: mean survival time, dose: 25.0 mg/kg/injection, schedule: Q01DX007 (oral), vehicle: carboxymethylcellulose (CMC)); 113 % of control (endpoint: mean survival time, dose: 50.0 mg/kg/injection, schedule: Q01DX001 (ip), vehicle: carboxymethylcellulose (CMC)); 116 % of control (endpoint: mean survival time, dose: 50.0 mg/kg/injection, schedule: Q01DX007 (ip), vehicle: carboxymethylcellulose (CMC)); 96 % of control (endpoint: mean survival time, dose: 50.0 mg/kg/injection, schedule: Q01DX007 (oral), vehicle: carboxymethylcellulose (CMC)). For the same molecule, the T/C reads like this: (endpoint: mean survival time, dose: 100.0 mg/kg/injection, schedule: Q01DX001 (ip), vehicle: carboxymethylcellulose (CMC)) 111 % of control; (endpoint: mean survival time, dose: 200.0 mg/kg/injection, schedule: Q01DX001 (ip), vehicle: carboxymethylcellulose (CMC)) 111 % of control; (endpoint: mean survival time, dose: 400.0 mg/kg/injection, schedule: Q01DX001 (ip), vehicle: carboxymethylcellulose (CMC)) 111 % of control.

For the molecule `CCC(C(=O)O)C(=O)O.[NH-]CC1CCCC[N-]1.[Pt+2]`, the T/C is, setting by setting: (endpoint: mean survival time, dose: 3.13 mg/kg/injection, schedule: Q04DX003 (ip), vehicle: saline) 98 % of control; (endpoint: mean survival time, dose: 25.0 mg/kg/injection, schedule: Q04DX003 (ip), vehicle: saline) 115 % of control; (endpoint: mean survival time, dose: 50.0 mg/kg/injection, schedule: Q04DX003 (ip), vehicle: saline) 124 % of control; (endpoint: median survival time, dose: 200.0 mg/kg/injection, schedule: Q04DX003 (ip), vehicle: distilled water + Tween-80) 103 % of control.

On to `CCC(c1ccccc1)C(CC)c1ccc(N(C)C)cc1` (stereo unspecified), for which the T/C runs as follows: (endpoint: mean survival time, dose: 50.0 mg/kg/injection, schedule: Q01DX009 (ip), vehicle: Klucel (hydroxypropylcellulose) (HPC)) 95 % of control; under setting [1], 94 % of control; under setting [2], 91 % of control; under setting [3], 97 % of control.

On to `O=c1nc(Nc2ccccc2)ccn1C1OC(CO)C(O)C1O` (stereo unspecified), for which the T/C was 98 % of control (endpoint: mean survival time, dose: 100.0 mg/kg/injection, schedule: Q01DX005 (ip), vehicle: distilled water + Tween-80); 107 % of control (endpoint: mean survival time, dose: 200.0 mg/kg/injection, schedule: Q01DX005 (ip), vehicle: distilled water + Tween-80); 110 % of control (endpoint: mean survival time, dose: 400.0 mg/kg/injection, schedule: Q01DX005 (ip), vehicle: distilled water + Tween-80).

Regarding `Cc1ccccc1Sc1cc2ccccc2c2ccccc12`, the T/C by setting is: (endpoint: mean survival time, dose: 100.0 mg/kg/injection, schedule: Q04DX003 (ip), vehicle: saline) 97 % of control; (endpoint: mean survival time, dose: 200.0 mg/kg/injection, schedule: Q04DX003 (ip), vehicle: saline) 100 % of control; (endpoint: mean survival time, dose: 400.0 mg/kg/injection, schedule: Q04DX003 (ip), vehicle: saline) 100 % of control.

Take `O=C(CNC(=O)c1ccccc1)N/N=C/c1ccccc1O`: the T/C by setting is: under setting [4], 94 % of control; under setting [5], 95 % of control; under setting [6], 89 % of control.

With `O=c1[nH]c(NCCc2ccccc2)c(Br)c(=O)[nH]1`, the T/C is 98 % of control (endpoint: mean survival time, dose: 75.0 mg/kg/injection, schedule: Q01DX001 (ip), vehicle: saline with Tween-80); 102 % of control (endpoint: mean survival time, dose: 150.0 mg/kg/injection, schedule: Q01DX001 (ip), vehicle: saline with Tween-80); 106 % of control (endpoint: mean survival time, dose: 300.0 mg/kg/injection, schedule: Q01DX001 (ip), vehicle: saline with Tween-80).

`CNC(=O)Nc1cccc(OS(=O)(=O)N(C)C)c1`: the T/C under setting [4] is 92 % of control, the T/C under setting [5] was 95 % of control and the T/C under setting [6] was 95 % of control.

On to `C=CC/C=C/C(C)(C)C`, for which the T/C is 103 % of control under setting [7], 100 % of control under setting [4] and 100 % of control under setting [5].

On to `CCCCCCCCCCC(=O)OCC1OC2C(Oc3nc(=N)ccn32)C1OC(=O)CCCCCCCCCC` (stereo unspecified), for which the T/C was 156 % of control (endpoint: mean survival time, dose: 12.5 mg/kg/injection, schedule: Q01DX009 (ip), vehicle: water); 202 % of control (endpoint: mean survival time, dose: 25.0 mg/kg/injection, schedule: Q01DX009 (ip), vehicle: water); 242 % of control (endpoint: mean survival time, dose: 50.0 mg/kg/injection, schedule: Q01DX009 (ip), vehicle: water); 118 % of control (endpoint: mean survival time, dose: 100.0 mg/kg/injection, schedule: Q01DX009 (ip), vehicle: water).

As to `COC(=O)c1ccccc1NC(=O)CCl`, the T/C by setting is: under setting [7], 96 % of control; under setting [4], 98 % of control; under setting [5], 94 % of control.

On to `O=C(Cc1ccccc1[N+](=O)[O-])NCC1(c2cccc3c2OCO3)OCCO1`, for which the T/C is, setting by setting: (endpoint: mean survival time, dose: 75.0 mg/kg/injection, schedule: Q01DX001 (ip), vehicle: other) 96 % of control; (endpoint: mean survival time, dose: 150.0 mg/kg/injection, schedule: Q01DX001 (ip), vehicle: other) 91 % of control; (endpoint: mean survival time, dose: 300.0 mg/kg/injection, schedule: Q01DX001 (ip), vehicle: other) 96 % of control.

`COc1cc2cccc(OC)c(=O)c2c(O)c1OC`: the T/C runs as follows: (endpoint: mean survival time, dose: 100.0 mg/kg/injection, schedule: Q01DX001 (ip), vehicle: saline) 98 % of control; (endpoint: mean survival time, dose: 200.0 mg/kg/injection, schedule: Q01DX001 (ip), vehicle: saline) 101 % of control; (endpoint: mean survival time, dose: 400.0 mg/kg/injection, schedule: Q01DX001 (ip), vehicle: saline) 101 % of control.

As for `CC(C)C1(C)NC(=O)NC1=O` (stereo unspecified), the T/C is 105 % of control (endpoint: mean survival time, dose: 100.0 mg/kg/injection, schedule: Q01DX009 (ip), vehicle: saline); 94 % of control (endpoint: mean survival time, dose: 200.0 mg/kg/injection, schedule: Q01DX009 (ip), vehicle: saline); 98 % of control (endpoint: mean survival time, dose: 400.0 mg/kg/injection, schedule: Q01DX009 (ip), vehicle: saline).

For `C=C1CC23CC[C@H]4[C@@](C)(CCC[C@@]4(C)C(=O)O)[C@@H]2CC[C@]1(OC1OC(COC(C)=O)C(OC(C)=O)C(OC(C)=O)C1OC1OC(COC(C)=O)C(OC(C)=O)C(OC(C)=O)C1OC(C)=O)C3` (stereo partly specified), the T/C is, setting by setting: (endpoint: mean survival time, dose: 100.0 mg/kg/injection, schedule: Q04DX002 (ip), vehicle: saline with Tween-80) 93 % of control; (endpoint: mean survival time, dose: 200.0 mg/kg/injection, schedule: Q04DX002 (ip), vehicle: saline with Tween-80) 89 % of control; (endpoint: mean survival time, dose: 400.0 mg/kg/injection, schedule: Q04DX002 (ip), vehicle: saline with Tween-80) 96 % of control.

For `COc1ccc(P(c2ccc(OC)cc2)c2ccc(OC)cc2)cc1`, the T/C reads like this: (endpoint: mean survival time, dose: 50.0 mg/kg/injection, schedule: Q04DX003 (ip), vehicle: saline with Tween-80) 97 % of control; under setting [8], 96 % of control; under setting [9], 91 % of control.

On to `CCCC(=O)NC1=C(Cl)C(=O)c2ccccc2C1=O`, for which the T/C (endpoint: mean survival time, dose: 5.0 mg/kg/injection, schedule: Q01DX001 (ip), vehicle: saline) was 88 % of control; the T/C (endpoint: mean survival time, dose: 10.0 mg/kg/injection, schedule: Q01DX001 (ip), vehicle: saline) was 103 % of control; the T/C (endpoint: mean survival time, dose: 20.0 mg/kg/injection, schedule: Q01DX001 (ip), vehicle: saline) is 95 % of control.

`N=C(N)N`: the T/C was 96 % of control under setting [7]; 98 % of control under setting [4]; 96 % of control under setting [8]; 96 % of control under setting [5]; 94 % of control under setting [9].

For `C1=CC=CN(c2ccccc2)C=C1`, the T/C runs as follows: (endpoint: mean survival time, dose: 100.0 mg/kg/injection, schedule: Q04DX003 (ip), vehicle: other) 106 % of control; (endpoint: mean survival time, dose: 200.0 mg/kg/injection, schedule: Q04DX003 (ip), vehicle: other) 95 % of control; (endpoint: mean survival time, dose: 400.0 mg/kg/injection, schedule: Q04DX003 (ip), vehicle: other) 97 % of control.

For `O=C(N/N=C/c1ccccc1)c1cc([N+](=O)[O-])cc([N+](=O)[O-])c1`, the T/C is 94 % of control under setting [1], 100 % of control under setting [2] and 98 % of control under setting [3].

`COC(CN(CC(OC)OC)c1ncnc2nc[nH]c12)OC`: the T/C was 93 % of control (endpoint: mean survival time, dose: 25.0 mg/kg/injection, schedule: Q01DX005 (ip), vehicle: other); 91 % of control (endpoint: mean survival time, dose: 50.0 mg/kg/injection, schedule: Q01DX005 (ip), vehicle: other); 98 % of control (endpoint: mean survival time, dose: 100.0 mg/kg/injection, schedule: Q01DX005 (ip), vehicle: other); 98 % of control (endpoint: mean survival time, dose: 200.0 mg/kg/injection, schedule: Q01DX005 (ip), vehicle: other); 96 % of control (endpoint: mean survival time, dose: 400.0 mg/kg/injection, schedule: Q01DX005 (ip), vehicle: other).
